Literature values as cited in US20210169840A1, “COMPOSITION AND METHOD OF AN IRON SUPPLEMENT” (priority 2019, published 2021).

Conditions: in vivo

absorption: ~70%
Substance: carbonyl iron
